# Assay results reported in patent publication US6808877B2, “Ligands for FPR class receptors that induce a host immune response to a pathogen or inhibit HIV infection” (priority 2000, dated 2004).
# Entries after “also recorded” stand apart in the source; their conditions may differ.
# Legend:
# CCR5 = CCR5 serine phosphorylation in monocytes (anti-phosphoserine IP, anti-CCR5 immunoblot); format: cell-based, human; details: human monocytes; for serine phosphorylation of CCR5: 37° C.
# Method: Monocytes were isolated by counter-flow elutriation from the peripheral blood of normal donors (NIH Clinical Center, Transfusion Medicine Department, Bethesda, Md.) and enriched for mononuclear cells by using counter-flow elutriation. The purity of the cell preparations was examined by morphology after cytospin, and was >90%. The cells were stimulated with different concentrations of chemokines for indicated time periods at 37° C. and lysed for 20 min on ice with periodic mixing in lysis buffer (1% Triton X-100, 20 mM, Tris-HCl pH 8.0, 137 mM NaCl, 15% glycerol, 5 mM EDTA) containing phosphatase and protease inhibitors (1 mM phenylmethylsulfonyl fluoride, 5 μg/ml aprotinin, 5 μg/ml leupeptin, 1 mM sodium orthovanadate, 1 mM EGTA). Cell lysates were precleared with 30 µl of washed Protein-A sepherose beads (Pharmacia Biotech. Piscataway, N.J.), 1 μg of polyclonal anti-phospho-serine antibody (Zymed Laboratory Inc. South San Francisco, Calif.) was added to 200 μg cell lysates diluted with 2×immunoprecipitation (IP) buffer (1×buffer contains 1%Triton X-100, 10 mM Tris-HCl pH 7.4, 137 mM NaCl, 1 mM EDTA, 1 mM EGTA, 0.2 mM sodium orthovanadate, 0.2 mM PMSF, 0.5% NP-40). The reaction mixture was incubated at 4° C. overnight under constant rocking. The immune complex was captured by adding 50 μl of washed Protein-A sepharose beads (25 μl packed beads) and incubation of the reaction mixture at 4° C. for additional 2 hours. The beads were spun down (10 seconds at 14,000 rpm), the pellets were washed 3 times with ice-cold IP buffer, resuspended in 30 μl of 2×Laemmli sample buffer (126 mM Tris-HCl, 20% Glycerol, 4% SDS, 0.005% bromophenol blue with or without addition of 1% 2-mercaptoethanol, Novex, San Diego, Calif.) and boiled for 5 min to elute the immune complex. After electrophoresis on 4-12% SDS-PAGE precast gel (Novex), the proteins were transferred to Immobilon P membranes (Millipore, Bedford, Mass.). The membranes were blocked in freshly prepared PBS containing 3% dry milk 2 h, then were incubated with 1 μg/ml of polyclonal anti-CCR5 antibody (Millenium Biotechnology, Ramona, Calif.) overnight at 4° C. followed by washing 3 times with PBS containing 0.05% Tween 20. The membranes were incubated with a horse radish-peroxidase conjugated goat anti-rabbit IgG (1:5000) (Sigma, St. Louis, Mo.) in PBS containing 3% dry milk for 1 hour at room temperature with agitation. After washing 3 times with PBS-0.05% Tween 20, the membranes were incubated with Super Signal Chemiluminescent Substrate Stable Peroxide Solution (Pierce, Rockford, Ill.) for 1 min, and exposed to BIOMAX-MR film (Eastman Kodak Company, Rochester, N.Y.).
# Monocytes stimulated with different concentrations of stimulants for indicated time periods at 37° C. were lysed for 20 min on ice with periodic mixing in lysis buffer [1% Triton X-100, 20 mM Tris-HCl (pH 8.0), 137 mM NaCl, 15% glycerol, 5 mM EDTA] containing phosphatase and protease inhibitors (1 mM phenylmethylsulfonyl fluoride, 5 μg/ml aprotinin, 5 μg/ml leupeptin, 1 mM sodium orthovanadate, 1 mM EGTA). Cell lysates were precleaned with 30 μl of washed Protein A Sepharose beads (15 μl packed beads) at 4° C. for 1 hour and 1 μg of polyclonal anti-phosphoserine antibody was added to 200 μg cell lysates diluted with 2×immunoprecipitation (IP) buffer [1×: 1% Triton X-100, 10 mM Tris-HCl (pH 7.4), 137 mM NaCl, 1 mM EDTA, 1 mM EGTA, 0.2 mM […], 0.2 mM PMSF, 0.5% NP-40]. The reaction mixture was incubated at 4° C. overnight under constant rocking. The immunecomplex was captured by adding 50 μl of washed Protein A sepharose beads (25 μl packed beads) and incubating the reaction mixture at 4° C. for an additional 2 hours. […]
# HIV-1BAL-env = assay: HIV-1 env fusion with human blood monocytes; format: cell-based
# FPRL1 = target: T1, FPRL1 (Homo sapiens, UniProt P25090); assay: Ca2+ mobilization in FPRL1/293 cells; format: cell-based
# T1 construct: expressed in transfected cells; host or cells: HEK 293
# T1 sequence (P25090 1-351): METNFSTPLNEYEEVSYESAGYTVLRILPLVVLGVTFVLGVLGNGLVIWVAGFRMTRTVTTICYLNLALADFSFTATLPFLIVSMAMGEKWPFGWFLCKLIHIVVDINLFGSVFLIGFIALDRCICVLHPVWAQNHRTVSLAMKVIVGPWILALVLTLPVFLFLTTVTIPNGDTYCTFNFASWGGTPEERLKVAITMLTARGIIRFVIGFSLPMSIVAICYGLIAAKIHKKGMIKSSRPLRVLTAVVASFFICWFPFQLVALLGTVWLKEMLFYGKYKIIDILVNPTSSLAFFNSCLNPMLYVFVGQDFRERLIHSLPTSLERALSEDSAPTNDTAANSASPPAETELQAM
# Method: Calcium mobilization was measured by incubating 2×10^7/ml cells in loading medium (DMEM, 10% FBS) with 5 μM Fura-2 AM (Molecular Probes, Eugene, Oreg.) for 30 min at room temperature in the dark. The dye-loaded cells were washed 3 times with loading medium and resuspended in saline buffer [138 mM NaCl, 6 mM KCl, 1 mM CaCl2, 10 mM HEPES (pH 7.4), 5 mM Glucose, 0.1% BSA] at a concentration of 1×10^6/ml. The cells were then transferred into quartz cuvettes (2 ml) which were placed in a luminescence spectrometer (LS-50B, Perkin-Elmer, Beaconsfield, England). Stimulants at different concentrations were added in a volume of 20 μl to each cuvette at the indicated time points. The ratio of fluorescence at 340 and 380 nm wavelength was calculated using a FL WinLab program (Perkin-Elmer).
# Calcium mobilization was assayed by incubating 2×10^7/ml of monocytes, neutrophils, FPRL1 or FPR transfectants in loading buffer containing 138 mM NaCl, 6 mM KCl, 1 mM CaCl2, 10 mM HEPES (pH 7.4), 5 mM glucose, 0.1% BSA with 5 μM Fura-2 (Sigma) at 37° C. for 30 min. The dye-loaded cells were washed and resuspended in fresh loading buffer. The cells were then transferred into quartz cuvettes (10^6 cells in 2 ml) which were placed in a luminescence spectrometer LS50 B (Perkin-Elmer Limited, Beaconsfield, England). Stimulants at different concentrations were added in a volume of 20 μl to the cuvettes at indicated time points. The ratio of fluorescence at 340 and 380 nm wavelength was calculated using the FL WinLab program (Perkin-Elmer).
Compound,time to increase in CCR5 phosphorylation after stimulation (CCR5) [min],serine phosphorylation of CCR5 (CCR5),HIV-1 env fusion (HIV-1BAL-env),excess required to desensitize the effect of W peptide (Ca2+ flux) (FPRL1; FPRL1/293 cells),"minimal effective concentration to induce Ca2+ mobilization (FPRL1; FPRL1/293 cells, given as range in words)",time of maximal CCR5 phosphorylation (CCR5) [min],Ca2+ mobilization (FPRL1; HEK293 cells transfected to express FPRL1)
"CSCC[C@H](NC=O)C(=O)N[C@@H](CC(C)C)C(=O)N[C@@H](Cc1ccccc1)C(=O)O [fMLP, N-formyl-methionyl-leucyl-phenylalanine]",≤ 1,increased level of CCR5 phosphorylation; also recorded: induced CCR5 phosphorylation,inhibition of HIV-1 env fusion with blood monocytes,10^5 fold excess,μM range,–,–
TRPNYNKRKRIHIGPGRAFYTTKNIIGTIRQAH-NH2 [V3 peptide],–,induced significant serine phosphorylation of CCR5,–,–,–,15,induced both Ca^2+ mobilization and chemotaxis
